Results as given in the supplement of paper PMC11208160.

Test: recombinant UMI read abundance after kanamycin selection (control-corrected) (log10(CPM+1)); higher = more efficient recombination; extreme values may be limits of the assay; sequences stand for … in AGTGCAGAGAAAATCGGCCAGTTTTCTCTGCCTGCAGTCCGCATGCCGTGGGACCCCTTGGGTTCTAACCTGTTGCCTAGATTTATGCAGCGGACTGCCTTTCTCCCAAAGTGATAAACCGG…AGGTTGGTTTCACT; site = the 11-nt donor
In short: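 For the IS621 bridge recombinase, a pooled Escherichia coli screen tested donor and donor-binding-loop pairs. Cells received the pair library together with a target plasmid encoding a fixed target and T7-inducible recombinase, then went onto IPTG (0.07 mM) plus kanamycin or unselected plates in duplicate. After PCR across the donor–target junction and sequencing, recombinant UMI counts were normalized to CPM, averaged, and scaled by control-derived factors. Each value is given as log10(CPM+1).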

Row | Sequence | recombinant UMI read abundance (log10)
1 | CGTGGAACATGGACCGGTTTTCCCGGTAATCCGTATTTGTT (site CTTGGAACTAA) | 0.0161
2 | CGTGGAACATGGACCGGTTTTCCCGGTAATCCGTATTTGTT (site GGTGGAACTAA) | 0.0165
3 | CGTGGAACATGGACCGGTTTTCCCGGTAATCCGTATTTGTT (site TGTGGAACTAA) | 0.0144
4 | CGTGGACCATGGACCGGTTTTCCCGGTAATCCGTATTTGGG (site CGAGGACCTCC) | 0.0168
5 | CGTGGACCATGGACCGGTTTTCCCGGTAATCCGTATTTGGG (site CGCGGACCTCC) | 0.00423
6 | CGTGGACCATGGACCGGTTTTCCCGGTAATCCGTATTTGGG (site CGGGGACCTCC) | 0.028
7 | CGTGGACCATGGACCGGTTTTCCCGGTAATCCGTATTTGGG (site CGTGGACCTCC) | 0.0154
8 | CGTGGGACATGGACCGGTTTTCCCGGTAATCCGTATTTGTT (site CGTGGAACTAA) | 1.86
9 | CGTGGGACATGGACCGGTTTTCCCGGTAATCCGTATTTGTT (site CGTGGCACTAA) | 0.0102
10 | CGTGGGACATGGACCGGTTTTCCCGGTAATCCGTATTTGTT (site CGTGGGACTAA) | 1.79
11 | CGTGGGACATGGACCGGTTTTCCCGGTAATCCGTATTTGTT (site CGTGGTACTAA) | 0
12 | CGTGGTTCATGGACCGGTTTTCCCGGTAATCCGTATTTGCG (site CGTGGTTCTCG) | 2.1
13 | CGTGTAACATGGACCGGTTTTCCCGGTAATCCGTATTTGCG (site CGTGTAACTCG) | 1.78
14 | CGTGTCACATGGACCGGTTTTCCCGGTAATCCGTATTTGGT (site CGTGTCACTAC) | 1.31
15 | CGTGTCGCATGGACCGGTTTTCCCGGTAATCCGTATTTGTG (site CGTGTCGCTCA) | 0.701
16 | CGTGTGTCATGGACCGGTTTTCCCGGTAATCCGTATTTGGA (site CGTGTGTCTTC) | 1.86
17 | CGTTAGACATGGACCGGTTTTCCCGGTAATCCGTATTTGCG (site CGTTAGACTCA) | 0.0494
18 | CGTTAGACATGGACCGGTTTTCCCGGTAATCCGTATTTGCG (site CGTTAGACTCC) | 0.0162
19 | CGTTAGACATGGACCGGTTTTCCCGGTAATCCGTATTTGCG (site CGTTAGACTCG) | 1.85
20 | CGTTAGACATGGACCGGTTTTCCCGGTAATCCGTATTTGCG (site CGTTAGACTCT) | 0.911
21 | CGTTAGCCATGGACCGGTTTTCCCGGTAATCCGTATTTGAG (site CGTTAGACTCT) | 0.00766
22 | CGTTAGCCATGGACCGGTTTTCCCGGTAATCCGTATTTGAG (site CGTTAGCCTCT) | 0.184
23 | CGTTAGCCATGGACCGGTTTTCCCGGTAATCCGTATTTGAG (site CGTTAGGCTCT) | 0.00758
24 | CGTTAGCCATGGACCGGTTTTCCCGGTAATCCGTATTTGAG (site CGTTAGTCTCT) | 0.737
25 | CGTTATACATGGACCGGTTTTCCCGGTAATCCGTATTTGAG (site CGTTAAACTCT) | 0

Row | Sequence | recombinant UMI read abundance (log10)
26 | CGTTATACATGGACCGGTTTTCCCGGTAATCCGTATTTGAG (site CGTTACACTCT) | 0.0313
27 | CGTTATACATGGACCGGTTTTCCCGGTAATCCGTATTTGAG (site CGTTAGACTCT) | 0.0101
28 | CGTTATACATGGACCGGTTTTCCCGGTAATCCGTATTTGAG (site CGTTATACTCT) | 1.25
29 | CGTTATCCATGGACCGGTTTTCCCGGTAATCCGTATTTGTC (site CGTTATCCTGA) | 1.46
30 | CGTTCATCATGGACCGGTTTTCCCGGTAATCCGTATTTGCC (site CGATCATCTAG) | 0
31 | CGTTCATCATGGACCGGTTTTCCCGGTAATCCGTATTTGCC (site CGTTCATCTGG) | 2.32
32 | CGTTCATCATGGACCGGTTTTCCCGGTAATCCGTATTTGTG (site CGTTCATCTCA) | 0.00491
33 | CGTTCCCCATGGACCGGTTTTCCCGGTAATCCGTATTTGTG (site CGTTCCCCTCA) | 0.365
34 | CGTTCGACATGGACCGGTTTTCCCGGTAATCCGTATTTGTT (site CGATCGACTAA) | 0.0104
35 | CGTTCGACATGGACCGGTTTTCCCGGTAATCCGTATTTGTT (site CGCTCGACTAA) | 0.0144
36 | CGTTCGACATGGACCGGTTTTCCCGGTAATCCGTATTTGTT (site CGGTCGACTAA) | 0.0244
37 | CGTTCGACATGGACCGGTTTTCCCGGTAATCCGTATTTGTT (site CGTTCGACTAA) | 0.0172
38 | CGTTCGTCATGGACCGGTTTTCCCGGTAATCCGTATTTGCT (site CGATCATCTAG) | 0
39 | CGTTCGTCATGGACCGGTTTTCCCGGTAATCCGTATTTGCT (site CGTTCGTCTAG) | 1.95
40 | CGTTGAACATGGACCGGTTTTCCCGGTAATCCGTATTTGTT (site CGTAGAACTAA) | 0.00276
41 | CGTTGAACATGGACCGGTTTTCCCGGTAATCCGTATTTGTT (site CGTCGAACTAA) | 0.0175
42 | CGTTGAACATGGACCGGTTTTCCCGGTAATCCGTATTTGTT (site CGTGGAACTAA) | 0.0247
43 | CGTTGAACATGGACCGGTTTTCCCGGTAATCCGTATTTGTT (site CGTTGAACTAA) | 0.623
44 | CGTTGTGCATGGACCGGTTTTCCCGGTAATCCGTATTTGAG (site CGTTGTGCTCT) | 1.77
45 | CGTTTGGCATGGACCGGTTTTCCCGGTAATCCGTATTTGCC (site CGTTTGGCTAG) | 0
46 | CGTTTGGCATGGACCGGTTTTCCCGGTAATCCGTATTTGCC (site CGTTTGGCTCG) | 0.0176
47 | CGTTTGGCATGGACCGGTTTTCCCGGTAATCCGTATTTGCC (site CGTTTGGCTGG) | 0
48 | CGTTTGGCATGGACCGGTTTTCCCGGTAATCCGTATTTGCC (site CGTTTGGCTTG) | 0
49 | CTAATAGCATGGACCGGTTTTCCCGGTAATCCGTATTTGAT (site CTAATAGCTAT) | 2.21
50 | CTAATATCATGGACCGGTTTTCCCGGTAATCCGTATTTGTC (site CTAATATCTGA) | 2.49

Row | Sequence | recombinant UMI read abundance (log10)
51 | CTAATATCATGGACCGGTTTTCCCGGTAATCCGTATTTGTC (site CTAGTATCTGT) | 1.1
52 | CTAATCTCATGGACCGGTTTTCCCGGTAATCCGTATTTGAC (site CTAATCTCTGT) | 2.44
53 | CTAATCTCATGGACCGGTTTTCCCGGTAATCCGTATTTGAC (site CTAGTATCTGT) | 0
54 | CTAATTACATGGACCGGTTTTCCCGGTAATCCGTATTTGCA (site CTAATTACTTG) | 2.07
55 | CTACAAACATGGACCGGTTTTCCCGGTAATCCGTATTTGGA (site CTACAAACTTC) | 1.28
56 | CTACAAACATGGACCGGTTTTCCCGGTAATCCGTATTTGGA (site CTACCAACTTC) | 0.0174
57 | CTACAAACATGGACCGGTTTTCCCGGTAATCCGTATTTGGA (site CTACGAACTTC) | 0.0102
58 | CTACAAACATGGACCGGTTTTCCCGGTAATCCGTATTTGGA (site CTACTAACTTC) | 0.313
59 | CTACCATCATGGACCGGTTTTCCCGGTAATCCGTATTTGGT (site CTACCATCTAC) | 0.00462
60 | CTACGAACATGGACCGGTTTTCCCGGTAATCCGTATTTGGA (site CTACAAACTTC) | 1.46
61 | CTACGAACATGGACCGGTTTTCCCGGTAATCCGTATTTGGA (site CTACCAACTTC) | 0.0142
62 | CTACGAACATGGACCGGTTTTCCCGGTAATCCGTATTTGGA (site CTACGAACTTC) | 1.91
63 | CTACGAACATGGACCGGTTTTCCCGGTAATCCGTATTTGGA (site CTACTAACTTC) | 0.113
64 | CTACTAACATGGACCGGTTTTCCCGGTAATCCGTATTTGGC (site CTACTAACTAC) | 0.561
65 | CTACTAACATGGACCGGTTTTCCCGGTAATCCGTATTTGGC (site CTACTAACTCC) | 0.31
66 | CTACTAACATGGACCGGTTTTCCCGGTAATCCGTATTTGGC (site CTACTAACTGC) | 2.51
67 | CTACTAACATGGACCGGTTTTCCCGGTAATCCGTATTTGGC (site CTACTAACTTC) | 1.31
68 | CTACTAACATGGACCGGTTTTCCCGGTAATCCGTATTTGGG (site CTACTAACTAC) | 0.0214
69 | CTACTAACATGGACCGGTTTTCCCGGTAATCCGTATTTGGG (site CTACTAACTCC) | 0.54
70 | CTACTAACATGGACCGGTTTTCCCGGTAATCCGTATTTGGG (site CTACTAACTGC) | 0.0111
71 | CTACTAACATGGACCGGTTTTCCCGGTAATCCGTATTTGGG (site CTACTAACTTC) | 0.0179
72 | CTACTATCATGGACCGGTTTTCCCGGTAATCCGTATTTGCC (site CTACTATCTGG) | 2.95
73 | CTACTATCATGGACCGGTTTTCCCGGTAATCCGTATTTGCC (site CTAGTATCTGT) | 0
74 | CTACTATCATGGACCGGTTTTCCCGGTAATCCGTATTTGGA (site CTACTAACTTC) | 0.127
75 | CTACTATCATGGACCGGTTTTCCCGGTAATCCGTATTTGGA (site CTACTACCTTC) | 0.00618
